We go through 38 compounds from patent US12391686B2, “Compounds and uses thereof” (Foghorn Therapeutics Inc., priority 2019, dated 2025).

SMILES strings stand for the structures. Read-outs that look alike come from different tables or passages of the source. A value given as a limit tells only on which side of the number the result lay.

The test has as its target T1, Nanoluciferase-BRD9 fusion protein (3×FLAG-NLuc-BRD9) in SYO-1 cells (Homo sapiens, UniProt Q9H8M2).
T1 construct: expressed in transfected cells; host or cells: SYO-1
T1 sequence (Q9H8M2 1-597): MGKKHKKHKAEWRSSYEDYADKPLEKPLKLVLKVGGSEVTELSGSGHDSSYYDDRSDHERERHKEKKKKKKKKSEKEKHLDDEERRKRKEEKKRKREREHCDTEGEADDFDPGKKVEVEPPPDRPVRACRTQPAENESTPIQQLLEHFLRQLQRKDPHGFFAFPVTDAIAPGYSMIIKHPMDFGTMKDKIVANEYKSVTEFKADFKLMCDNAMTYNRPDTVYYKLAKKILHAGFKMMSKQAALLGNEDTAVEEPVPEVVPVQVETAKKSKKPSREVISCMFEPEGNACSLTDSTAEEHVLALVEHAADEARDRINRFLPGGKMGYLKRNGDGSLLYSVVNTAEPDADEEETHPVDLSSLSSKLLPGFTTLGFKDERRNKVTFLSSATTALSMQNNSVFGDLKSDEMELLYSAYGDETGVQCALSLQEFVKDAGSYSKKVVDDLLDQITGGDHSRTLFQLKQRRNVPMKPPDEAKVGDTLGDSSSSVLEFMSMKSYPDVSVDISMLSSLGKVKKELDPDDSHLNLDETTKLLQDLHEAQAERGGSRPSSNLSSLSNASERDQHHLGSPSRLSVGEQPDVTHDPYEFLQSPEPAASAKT
Put plainly: SYO1 BRD9 NanoLuc Degradation Assay. Type of test: cell-based. Conditions: SYO-1 cells expressing 3×FLAG-NLuc-BRD9, 6 hours incubation, 1 μM top dose, read-out: SYO1 BRD9-NanoLuc degradation IC50. The method, then: Procedure: A stable SYO-1 cell line expressing 3×FLAG-NLuc-BRD9 was generated. On day 0 cells were seeded in 30 μL media into each well of 384-well cell culture plates. The seeding density was 8000 cells/well. On day 1, cells were treated with 30 nL DMSO or 30 nL of 3-fold serially DMSO-diluted compounds (10 points in duplicates with 1 μM as final top dose). Subsequently plates were incubated for 6 hours in a standard tissue culture incubator and equilibrated at room temperature for 15 minutes. Nanoluciferase activity was measured by adding 15 μL of freshly prepared Nano-Glo Luciferase Assay Reagent (Promega N1130), shaking the plates for 10 minutes and reading the bioluminescence using an EnVision reader.
Results: The Inhibition % was calculated using the following formula: % Inhibition=100×(LumHC−Lumsample)/(LumHC−LumLC). DMSO treated cells are employed as High Control (HC) and 1 μM of a known BRD9 degrader standard treated cells are employed as Low Control (LC).

In the case of `COc1cc(-c2cn(C)c(=O)c3cnc(N(C)C)cc23)cc(OC)c1CN1CCN([C@H](C)COc2ccc3c(c2)C(=O)N(C2CCC(=O)NC2=O)C3=O)CC1` (some centres unmarked) [Compound D77], the DC50 (Table 6B) was below 10 nM.
On to `[2H]C([2H])([2H])N(c1cc2c(-c3cc(OC)c(CN4CCN(CCC5CCN(c6ccc7c(c6)C(=O)N(C6CCC(=O)NC6=O)C7)CC5)CC4)c(OC)c3)cn(C)c(=O)c2cn1)C([2H])([2H])[2H]` (centres unmarked) [Compound D197], for which, where the note is “Table 6C”, the DC50 is below 10 nM.
For the compound `COc1cc(-c2cn(C)c(=O)c3cnc(N4CCC4)cc23)cc(OC)c1CN1CCC(c2ccc3c(c2)C(=O)N(C2CCC(=O)NC2=O)C3=O)CC1C(F)(F)F` (centres unmarked) [Compound D150], the DC50 (Table 6B) was below 10 nM.
Still for that read-out and setting: in the case of `COc1cc(-c2cn(C)c(=O)c3cnc(N(C)C)cc23)cc(OC)c1CN1CCC(C[N+]2(C)CCC3(CC2)CC(Oc2ccc4c(c2)C(=O)N(C2CCC(=O)NC2=O)C4=O)C3)CC1` (centres unmarked) [Compound D84] it was 10 to 100 nM.
In the case of `[2H]C1CC(N2Cc3ccc(N4CCC(CCN5CCN(Cc6c(OC)cc(-c7cn(C)c(=O)c8cnc(N9CCC9)cc78)cc6OC)CC5)CC4)cc3C2=O)C(=O)NC1=O` (centres unmarked) [Compound D244], for the setting “Table 6C”, the DC50 is below 10 nM.
For the compound `COc1cc(-c2cn(C)c(=O)c3cnc(N(C)C)cc23)cc(OC)c1CN1CC(CC(=O)N2CCC3(CC2)CC(Oc2ccc4c(c2)C(=O)N(C2CCC(=O)NC2=O)C4=O)C3)C1` (centres unmarked) [Compound D42], the DC50 (Table 6B) is below 10 nM.
Still for that read-out and setting: the same measure for `COc1cc(-c2cn(C)c(=O)c3cnc(N(C)C)cc23)cc(OC)c1CN1CC(CN2CCC3(CC2)CN(c2ccc4c(c2)C(=O)N(C2CCC(=O)NC2=O)C4)C3)C1` (centres unmarked) [Compound D152]: below 10 nM.
`COc1cc(-c2cn(C)c(=O)c3cnc(C4CC4)cc23)cc(OC)c1CN1CCC(C(N2CCC3(CC2)CC(Oc2ccc4c(c2)C(=O)N(C2CCC(=O)NC2=O)C4)C3)C(F)(F)F)CC1` (centres unmarked) [Compound D243]: the DC50 (Table 6C) was below 10 nM.
Consider `COc1cc(-c2cn(C)c(=O)c3cnc(N(C)C)cc23)cc(OC)c1CN1CCN(CCC2CCN(c3ccc4c(c3)C(=O)N(C3CCC(=O)NC3=O)C4=O)CC2)CC1` (centres unmarked) [Compound D105], for which, where the note is “Table 6B”, the DC50 was below 10 nM.
Same read-out and setting: in the case of `COc1cc(-c2cn(C)c(=O)c3ccc(N4CCC4)cc23)cc(OC)c1CN1CCC(N2CCC(c3ccc4c(c3)CN(C3CCC(=O)NC3=O)C4=O)CC2)CC1` (centres unmarked) [Compound D183] it was at least 1000 nM.
Turning to `COc1cc(-c2cn(C)c(=O)c3cnc(C(F)(F)F)cc23)cc(OC)c1CN1CC(CN2CCC3(CC2)CN(c2ccc4c(c2)C(=O)N(C2CCC(=O)NC2=O)C4)C3)C1` (centres unmarked) [Compound D186], the DC50 (Table 6C) is below 10 nM.
`C/C=C/n1cc(-c2cc(OC)c(CN3CCN(CCC4CCN(c5ccc6c(c5)C(=O)N(C5CCC(=O)NC5=O)C6=O)CC4)CC3)c(OC)c2)c2cc(N(C)C)ncc2c1=O` (centres unmarked) [Compound D139]: the DC50 (Table 6B) was below 10 nM.
On the same count and under the same terms, the same measure for `COc1cc(-c2cn(C)c(=O)c3cnc(N(C)C)cc23)cc(OC)c1CN1CC(C#Cc2ccc3c(c2)C(=O)N(C2CCC(=O)NC2=O)C3=O)C1` (centres unmarked) [Compound D89]: below 10 nM; for `COc1cc(-c2cn(C)c(=O)c3cnc(N(C)C)cc23)cc(OC)c1CN1CC(CN2CCC3(C2)CN(c2ccc4c(c2)C(=O)N(C2CCC(=O)NC2=O)C4=O)C3)C1` (centres unmarked) [Compound D51]: below 10 nM.
Regarding `COc1cc(-c2cn(C)c(=O)c3cnc(N4CCC4)cc23)cc(OC)c1CN1CC(N(C)c2ccc3c(c2)C(=O)N(C2CCC(=O)NC2=O)C3)C1` (centres unmarked) [Compound D256], the DC50 (Table 6C) was below 10 nM.
On to `COc1cc(-c2cn(C)c(=O)c3cnc(N(C)C)cc23)cc(OC)c1CN1CC(CN2CC3(CCN(c4ccc5c(c4)C(=O)N(C4CCC(=O)NC4=O)C5=O)C3)C2)C1` (centres unmarked) [Compound D49], for which the DC50 (Table 6B) was below 10 nM.
For the compound `COc1cc(-c2cn(C)c(=O)c3cnc(N(C)C)cc23)cc(OC)c1CN1CCC(n2cc([C@H](C)Oc3ccc4c(c3)C(=O)N(C3CCC(=O)NC3=O)C4=O)nn2)CC1` (some centres unmarked) [Compound D87], the DC50 (Table 6B) was below 10 nM.
Regarding `COc1cc(-c2cn(C)c(=O)c3cnc(N4CCC4)cc23)cc(OC)c1CN1CC(CN2CCC3(CC2)CN(c2ccc4c(c2)C(=O)N(C2CCC(=O)N(C)C2=O)C4)C3)C1` (centres unmarked) [Compound D259], under “Table 6C”, the DC50 was at least 1000 nM.
Turning to `COc1cc(-c2cn(C)c(=O)c3cnc(N(C)C)cc23)cc(OC)c1CN1CC(N2CCN(c3ccc4c(c3)C(=O)N(C3CCC(=O)NC3=O)C4=O)CC2)C1` (centres unmarked) [Compound D69], the DC50 (Table 6B) was below 10 nM.
Consider `COc1cc(-c2cn(C)c(=O)c3cnc(N4CCC4)cc23)cc(OC)c1CN1CCC(CN2CCC3(CC2)CC(Oc2ccc4c(c2)C(=O)N(C2CCC(=O)NC2=O)C4=O)C3)CC1` (centres unmarked) [Compound D80], for which, under “Table 6B”, the DC50 was below 10 nM.
Turning to `COc1cc(-c2cn(C)c(=O)c3cnc(N(C)C)cc23)cc(OC)c1CN1CCC2(CC1)CCN(CC#Cc1ccc3c(c1)C(=O)N(C1CCC(=O)NC1=O)C3=O)C2` (centres unmarked) [Compound D65], the DC50 (Table 6B) is below 10 nM.
`COc1cc2c(-c3cc(OC)c(C4CCN(c5ccc6c(c5)C(=O)N(C5CCC(=O)NC5=O)C6)CC4)c(OC)c3)cn(C)c(=O)c2cn1` (centres unmarked) [Compound D295]: the DC50 (Table 6C) was below 10 nM.
For `COc1cc(-c2cn(C)c(=O)c3cnc(N(C)C)cc23)cc(Cl)c1CN1CCC(CN2CCC3(CC2)CC(Oc2ccc4c(c2)C(=O)N(C2CCC(=O)NC2=O)C4=O)C3)CC1` (centres unmarked) [Compound D101], the DC50 (Table 6B) was below 10 nM.
With `COc1cc(-c2cn(C)c(=O)c3cnc(N4CC(C)(OC)C4)cc23)cc(OC)c1CN1CC(CN2CCC3(CC2)CN(c2ccc4c(c2)C(=O)N(C2CCC(=O)NC2=O)C4)C3)C1` (centres unmarked) [Compound D210], the DC50 (Table 6C) was below 10 nM.
The same measure, in the same setting: in the case of `COc1cc(-c2cn(C)c(=O)c3cnc(N4CCC4)cc23)cc(OC)c1C1CCN(c2ccc3c(c2)C(=O)N(C2CCC(=O)NC2=O)C3)CC1` (centres unmarked) [Compound D294] it was below 10 nM; in that of `COc1cc(-c2cn(C)c(=O)c3cnc(N(C)C)cc23)cc(OC)c1CN1CCC(N2CCN(C3CCC(=O)NC3=O)C(=O)C2)C1` (centres unmarked) [Compound D250], 100 to 1000 nM; in that of `[2H]C([2H])([2H])n1cc(-c2cc(OC)c(CN3[C@H](C)CN(c4ccc5c(c4)C(=O)N(C4CCC(=O)NC4=O)C5)C[C@H]3C)c(OC)c2)c2cc(N(C)C)ncc2c1=O` (some centres unmarked) [Compound D276], below 10 nM.
On to `COc1cc2c(-c3cc(OC)c(CN4CCN(c5ccc6c(c5)C(=O)N(C5CCC(=O)NC5=O)C6)CC4C)c(OC)c3)cn(C)c(=O)c2cn1` (centres unmarked) [Compound D293], for which the DC50 (Table 6C) is below 10 nM.
Regarding `COc1cc(-c2cn(C)c(=O)c3cnc(C4CC4)cc23)cc(OC)c1CN1CCC(C#Cc2ccc3c(c2)C(=O)N(C2CCC(=O)NC2=O)C3=O)CC1` (centres unmarked) [Compound D272], the DC50 (Table 6C) was below 10 nM.
For `COc1cc(-c2nn(C)c(=O)c3cnc(N4CCC4)cc23)cc(OC)c1CN1CCC(CN2CCC3(CC2)CC(Oc2ccc4c(c2)C(=O)N(C2CCC(=O)NC2=O)C4)C3)CC1` (centres unmarked) [Compound D191], the DC50 (Table 6C) fell in the range of 100 to 1000 nM.
Consider `CCn1cc(-c2cc(OC)c(CN3CCC(N4CCN(c5ccc6c(c5)CN(C5CCC(=O)NC5=O)C6=O)CC4)CC3)c(OC)c2)c2cc(N3CCC3)ncc2c1=O` (centres unmarked) [Compound D123], for which the DC50 (Table 6B) was below 10 nM.
Consider `COc1cc(-c2cn(C)c(=O)c3cnc(N(C)C)cc23)cc(OC)c1CN1CCC(N2CCN(C3CCC(=O)NC3=O)C(=O)C2)CC1` (centres unmarked) [Compound D253], for which, where the note is “Table 6C”, the DC50 is at least 1000 nM.
For the compound `COc1cc(-c2cn(C)c(=O)c3cnc(N(C)C)cc23)cc(OC)c1CN1CCN(CCC2CCN(c3ccc4c(c3)CN(C3CCC(=O)NC3=O)C4=O)CC2)CC1` (centres unmarked) [Compound D121], under “Table 6B”, the DC50 is below 10 nM.
In the case of `COc1cc(-c2cn(C)c(=O)c3cnc(N4CCC4)cc23)cc(OC)c1CN1CCC(CN2CCC3(CN(c4ccc5c(c4)CN(C4CCC(=O)NC4=O)C5=O)C3)C(F)(F)C2)CC1` (centres unmarked) [Compound D232], the DC50 (Table 6C) was below 10 nM.
Same read-out and setting: the same measure for `COc1cc(-c2cn(C)c(=O)c3cnc(C4CC4)cc23)cc(OC)c1CN1CC(C#Cc2ccc3c(c2)C(=O)N(C2CCC(=O)NC2=O)C3=O)C1` (centres unmarked) [Compound D275]: below 10 nM.
Take `COc1cc(-c2cn(C)c(=O)c3cnc(N(C)C)cc23)cc(OC)c1CN1CCC(CN2Cc3cc4c(cc3C2)C(=O)N(C2CCC(=O)NC2=O)C4=O)CC1` (centres unmarked) [Compound D61]: the DC50 (Table 6B) was below 10 nM.
`COc1cc(-c2nn(C)c(=O)c3cnc(N4CCC4)cc23)cc(OC)c1CN1CCC(CN2CCC3(CC2)CC(Oc2ccc4c(c2)C(=O)N(C2CCC(=O)NC2=O)C4)C3)CC1` (centres unmarked) [Compound D283]: the DC50 (Table 6C) lay within 100 to 1000 nM.
Same read-out and setting: the same measure for `COc1cc(-c2cn(C)c(=O)c3cnc(C4CC4)cc23)cc(OC)c1CN1CC(CN2CCC3(CC2)CN(c2ccc4c(c2)C(=O)N(C2CCC(=O)NC2=O)C4=O)C3)C1` (centres unmarked) [Compound D303]: below 10 nM.
